{"source": "paper PMC10388305", "about": "“Synthesis and Evaluation of a Monomethyl Auristatin E—Integrin αvβ6 Binding Peptide–Drug Conjugate for Tumor Targeted Drug Delivery” (Journal of Medicinal Chemistry, 2023)", "key": {"DX3puroβ6 (+) cells [1]": {"system": "DX3puroβ6 (+) cells", "experiment": "WST-1 cell viability assay, DX3puroβ6", "format": "cell-based", "details": "WST-1 EC50 ratio", "protocol": "(§1) Peptides NH2-2 and [^natCu]2 were not toxic to any cells (Figure 3, gray and black, respectively).\n(§2) Cell viability was measured after treatment with either NH2-2, [^natCu]2, MMAE (free, non-targeted drug), NH2-PDC-1, or [^natCu]PDC-1 in DX3puroβ6 (+) and DX3puro (−) cells at variable concentrations up to 5 nM, and in BxPC-3 (+) and MIA PaCa-2 (−) cells at variable concentrations up to 250 nM, or with MMAE at concentrations up to 10 nM. Cells were seeded in a 96 well plate at a density of 6000 cells/well for DX3puroβ6 and DX3puro, and at a density of 10,000 cells/well for BxPC-3 and MIA PaCa-2. DMEM media was used for all cells except for BxPC-3 (RPMI 1640 media). Cells (n = 6–8 wells/cell type/compound) were treated with different concentrations of NH2-2, [^natCu]2, MMAE, NH2-PDC-1, or [^natCu]PDC-1 dissolved in the respective media, as well as their respective media (no treatment) for 48 h (37 °C, 5% CO2), after which the media was removed; cells were washed twice with media (200 μL) and re-incubated in media (37 °C, 5% CO2) for 24 h. The media was then removed and the WST-1 reagent was added to each well, and the cells were incubated for 2 h at 37 °C. The 96 well plates were read at 450 nm by a Multiscan Ascent microplate reader. The percent cell viability was normalized to untreated cells (set as 100% viability) for each cell line."}, "DX3puro (−) cells [2]": {"system": "DX3puro (−) cells", "experiment": "WST-1 cell viability assay, DX3puro", "format": "cell-based", "details": "up to 5 nM", "protocol": "as §1, §2"}, "MIA PaCa-2 (−) cells [3]": {"system": "MIA PaCa-2 (−) cells", "experiment": "WST-1 cell viability assay, MIA PaCa-2", "format": "cell-based", "details": "MIA PaCa-2; WST-1", "protocol": "as §1, §2"}, "DX3puroβ6 (+) cells [4]": {"system": "DX3puroβ6 (+) cells", "experiment": "Caspase-3/7 activity assay (ApoTox-Glo), DX3puroβ6", "format": "cell-based", "details": "DX3puroβ6; 0.625 nM; 24 h; untreated = 1; n = 4", "protocol": "(§3) Caspase-3/7 activity was analyzed using an ApoTox-Glo Triplex Assay kit. Cells were seeded in a 96 well plate at the same density and using the same respective media as described for the WST-1 assay and incubated overnight (37 °C, 5% CO2). DX3puroβ6 and DX3puro cells were treated with 1 nM of MMAE (free, non-targeted drug) or 0.625 nM of the other compounds: NH2-2, [^natCu]2, NH2-PDC-1, or [^natCu]PDC-1. BxPC-3 and MIA PaCa-2 cells were treated with 10 nM of MMAE or 250 nM of the other compounds: NH2-2, [^natCu]2, NH2-PDC-1, or [^natCu]PDC-1. All cells were treated with 100 nM of staurosporine as a positive control.[24] Untreated cells (media) were used as a measure of endogenous caspase-3/7 activity (normalized to 1). Cells were treated (n = 4/cell line/compound/time) for 24, 48, or 72 h (37 °C, 5% CO2) prior to washing. After treatment, the media was removed, cells were washed, and Caspase-Glo 3/7 reagent was added, and incubated for 1 h at room temperature. Caspase-3/7 activity was analyzed by measuring luminescence with a Fluoroskan FL microplate reader according to the manufacturer’s protocol."}, "DX3puro (−) cells [5]": {"system": "DX3puro (−) cells", "experiment": "Caspase-3/7 activity assay (ApoTox-Glo), DX3puro", "format": "cell-based", "details": "0.625 nM (MMAE 1 nM, staurosporine 100 nM), 24, 48, 72 h", "protocol": "as §3"}, "BxPC-3 (+) cells": {"system": "BxPC-3 (+) cells", "experiment": "Caspase-3/7 activity assay (ApoTox-Glo), BxPC-3", "format": "cell-based", "details": "250 nM, 48 h, untreated = 1, n = 4", "protocol": "as §3"}, "MIA PaCa-2 (−) cells [6]": {"system": "MIA PaCa-2 (−) cells", "experiment": "Caspase-3/7 activity assay (ApoTox-Glo), MIA PaCa-2", "format": "cell-based", "details": "250 nM (MMAE 10 nM, staurosporine 100 nM), 24, 48, 72 h", "protocol": "as §3"}, "DX3puroβ6 (+) tumors": {"system": "DX3puroβ6 (+) tumors", "experiment": "Therapy study, DX3puroβ6 (+) tumor-bearing mice", "format": "in vivo", "excerpt": "(§4) Mice treated with [^natCu]PDC-1 had slower tumor growth compared to the groups receiving saline, non-drug bearing peptide [^natCu]2, or free, non-targeted MMAE (Figure 7). […] All mice in the groups treated with saline, non-drug bearing peptide [^natCu]2, or free, non-targeted MMAE had met an end point criterion (≥2 cm in any direction and/or tumor ulceration) by 56 days, 70 days, and 64 days from start of treatment, respectively, with all these groups having the same median survival of 37 days (Figure 7B).\nTumor xenografts were established by subcutaneous injection of either DX3puroβ6 or DX3puro cells (3 × 10^6 cells in 100 μL serum-free DMEM/animal) into the flank. The tumors were allowed to grow for 19 days before the start of treatment (day 0). Mice were treated with either (1) saline, (2) peptide ([^natCu]2), 6 mg/kg, 1.12 μmol/kg), (3) non-targeted drug (MMAE, 0.3 mg/kg, 0.42 μmol/kg), or (4) PDC ([^natCu]PDC-1, 6 mg/kg, 0.88 μmol/kg). Dosing of MMAE was 0.3 mg/kg as per maximum dose with no physiological response.[25] The [^natCu]PDC-1 treatment groups consisted of n = 10/tumor model, while all other groups (saline, [^natCu]2, and MMAE) consisted of n = 4/tumor model. All groups received four doses (on days 0, 3, 6, and 9) via i.v. tail vein injection of the above dose dissolved in saline (100 μL). The mean weights and standard deviation of each group was 25.9 ± 1.2 g (saline), 25.6 ± 1.5 g ([^natCu]2), 25.8 ± 2.5 g (MMAE), 24.9 ± 1.9 g ([^natCu]PDC-1, DX3puroβ6 tumors), and 25.7 ± 2.0 g ([^natCu]PDC-1, DX3puro tumors) at day 0. Tumor volumes and body weights (to assess possible systemic toxicity) were measured starting on day 0, and once a week thereafter until the end of the study. Tumor volume (V) was determined according to the equation V = (π/6) × L × W × H, where L is the longest axis, W is the axis perpendicular to L, and H is perpendicular to the plane of L and W. End point determination criteria were: any axis >2 cm, active ulceration, or compromised health of the mouse (>20% loss of body weight from the start of the study). All data are represented as the mean ± SD and are plotted beginning at day 0. Survival curves were determined by Kaplan–Meier method."}, "DX3puro (−) tumors": {"system": "DX3puro (−) tumors", "experiment": "Therapy study, DX3puro (−) tumor-bearing mice", "format": "in vivo", "excerpt": "as §4\nTumor xenografts were established by subcutaneous injection of either DX3puroβ6 or DX3puro cells (3 × 10^6 cells in 100 μL serum-free DMEM/animal) into the flank. The tumors were allowed to grow for 19 days before the start of treatment (day 0). […] Tumor volumes and body weights (to assess possible systemic toxicity) were measured starting on day 0, and once a week thereafter until the end of the study. Tumor volume (V) was determined according to the equation V = (π/6) × L × W × H, where L is the longest axis, W is the axis perpendicular to L, and H is perpendicular to the plane of L and W. End point determination criteria were: any axis >2 cm, active ulceration, or compromised health of the mouse (>20% loss of body weight from the start of the study). […] Survival curves were determined by Kaplan–Meier method."}}, "note": "Entries after “also recorded” stand apart in the source; their conditions may differ."}
{"smiles": "CC[C@H](C)[C@@H]([C@@H](CC(=O)N1CCC[C@H]1[C@H](OC)[C@@H](C)C(=O)N[C@H](C)[C@@H](O)c1ccccc1)OC)N(C)C(=O)[C@@H](NC(=O)[C@H](C(C)C)N(C)C(=O)OCc1ccc(NC(=O)[C@H](CCCNC(N)=O)NC(=O)[C@@H](NC(=O)CCOCCOCCNC(=O)CCN2C(=O)CC(SC[C@H](NC(=O)CN3CCN(CC(=O)O)CCN(CC(=O)O)CCN(CC(=O)O)CC3)C(=O)NCCOCCOCCOCCOCCOCCOCCOCCOCCOCCOCCOCCOCCOCCOCCOCCOCCOCCOCCOCCOCCOCCOCCOCCOCCOCCOCCOCCOCCC(=O)N[C@@H](CC(N)=O)C(=O)N[C@@H](C)C(=O)N[C@H](C(=O)N3CCC[C@H]3C(=O)N[C@@H](CC(N)=O)C(=O)N[C@@H](CC(C)C)C(=O)N[C@@H](CCCNC(=N)N)C(=O)NCC(=O)N[C@@H](CC(=O)O)C(=O)N[C@@H](CC(C)C)C(=O)N[C@@H](CCC(N)=O)C(=O)N[C@H](C(=O)N[C@@H](CC(C)C)C(=O)N[C@@H](C)C(=O)N[C@@H](CCC(N)=O)C(=O)N[C@@H](CCCNC(=N)N)C(=O)N[C@H](C(=O)N[C@@H](C)C(=O)N[C@@H](CCCNC(=N)N)C(=O)N[C@H](C(=O)NCCOCCOCCOCCOCCOCCOCCOCCOCCOCCOCCOCCOCCOCCOCCOCCOCCOCCOCCOCCOCCOCCOCCOCCOCCOCCOCCOCCOCCC(N)=O)[C@@H](C)O)C(C)C)C(C)C)C(C)C)C2=O)C(C)C)cc1)C(C)C", "note": "(some centres unmarked) [[^natCu]PDC-1, metal not drawn]", "values": [{"measurement": "Fold more cytotoxic toward DX3puroβ6 (+) than DX3puro (−) cells", "setting": "DX3puroβ6 (+) cells [1]", "value": "> 86", "unit": "fold"}, {"measurement": "Cytotoxicity (in words), WST-1", "setting": "DX3puro (−) cells [2]", "value": "no observable cytotoxic effects"}, {"measurement": "Concentration required for noticeable cytotoxic effects", "setting": "MIA PaCa-2 (−) cells [3]", "value": "≥ 250", "unit": "nM"}, {"measurement": "Caspase-3/7 activity, times higher", "setting": "DX3puroβ6 (+) cells [4]", "value": "> 5", "unit": "times"}, {"measurement": "Caspase-3/7 activity (in words)", "setting": "DX3puro (−) cells [5]", "value": "no observed change"}, {"measurement": "Caspase-3/7 activity, fold increase", "setting": "BxPC-3 (+) cells", "value": "> 3", "unit": "fold"}, {"measurement": "Caspase-3/7 activity (in words)", "setting": "MIA PaCa-2 (−) cells [6]", "value": "slight increase"}, {"measurement": "Median survival", "setting": "DX3puroβ6 (+) tumors; DX3puroβ6 (+) tumors, 6 mg/kg i.v. on days 0, 3, 6, 9, n = 10", "value": 77, "unit": "days"}, {"measurement": "Mean tumor volume, times smaller than all other treatment groups (saline, [natCu]2, MMAE)", "setting": "DX3puroβ6 (+) tumors; day 37", "value": "> 4", "unit": "times"}, {"measurement": "Mean tumor volume, times smaller than equally treated DX3puro (−) tumors", "setting": "DX3puroβ6 (+) tumors; day 37, P = 0.0099", "value": "> 2.75", "unit": "times"}, {"measurement": "Body weight / systemic toxicity (in words)", "setting": "DX3puroβ6 (+) tumors; four doses of 6 mg/kg i.v., body weight weekly, all groups compared, 6 mg/kg", "value": "No significant differences; also recorded: did not cause adverse systemic side-effects"}, {"measurement": "Median survival, fold longer than other treatment groups", "setting": "DX3puroβ6 (+) tumors; vs saline, [natCu]2, MMAE (37 days)", "value": "> 2", "unit": "fold"}, {"measurement": "Median survival", "setting": "DX3puro (−) tumors; 6 mg/kg i.v. on days 0, 3, 6, 9, n = 10", "value": 49, "unit": "days"}, {"measurement": "Time at which all mice had reached an end point", "setting": "DX3puro (−) tumors; from start of treatment", "value": 95, "unit": "days"}]}
